Results: ChEMBL document CHEMBL3352445, “Inhibition of activated STAT5 in Bcr/Abl expressing leukemia cells with new pimozide derivatives” (Bioorg Med Chem Lett, 2014)
Calls of active or inactive are those of the source. The calls are words filed in the database; no cut-off is given here.

Experiments:
K562 [1] = assay: Cytotoxicity against human K562 cells after 48 hrs by trypan blue dye exclusion test; format: functional, cell-based; settings: K562, 48 h
K562 [2] = assay: Induction of apoptosis in human K562 cells by annexin V/propidium iodide staining-based flow cytometric analysis; format: functional, cell-based
K562 [3] = assay: Cell cycle arrest in human K562 cells assessed as accumulation at G2-M phase after 24 hrs using propidium iodide staining at 20 uM by flow cytometry (reference value: 15.01%); format: functional
K562 [4] = assay: Effect on pSTAT5 expression level in human K562 cells at 20 uM after 24 hrs by FACScan flow cytometry; format: functional, cell-based
K562 [5] = assay: Cell cycle arrest in human K562 cells assessed as accumulation at S phase after 24 hrs using propidium iodide staining at 20 uM by flow cytometry (reference value: 45.94%); format: functional
K562 [6] = assay: Cell cycle arrest in human K562 cells assessed as accumulation at G1 phase after 24 hrs using propidium iodide staining at 20 uM by flow cytometry (reference value: 39.05%); format: functional
K562 [7] = assay: Cell cycle arrest in human K562 cells assessed as accumulation at G1 phase after 24 hrs using propidium iodide staining at 30 uM by flow cytometry (reference value: 39.05%); format: functional
K562 [8] = assay: Cell cycle arrest in human K562 cells assessed as accumulation at S phase after 24 hrs using propidium iodide staining at 30 uM by flow cytometry (reference value: 45.94%); format: functional
K562 [9] = assay: Cell cycle arrest in human K562 cells assessed as accumulation at G2-M phase after 24 hrs using propidium iodide staining at 30 uM by flow cytometry (reference value: 15.01%); format: functional
K562 [10] = assay: Reduction in pSTAT5 expression level in human K562 cells at 10 uM after 24 hrs by FACScan flow cytometry; format: functional, cell-based
K562 [11] = assay: Cell cycle arrest in human K562 cells assessed as accumulation at G2-M phase after 24 hrs using propidium iodide staining at 10 uM by flow cytometry (reference value: 15.01%); format: functional
K562 [12] = assay: Cell cycle arrest in human K562 cells assessed as accumulation at G1 phase after 24 hrs using propidium iodide staining at 10 uM by flow cytometry (reference value: 39.05%); format: functional
K562 [13] = assay: Cell cycle arrest in human K562 cells assessed as accumulation at S phase after 24 hrs using propidium iodide staining at 10 uM by flow cytometry (reference value: 45.94%); format: functional
K562 [14] = assay: Cell cycle arrest in human K562 cells assessed as accumulation at G1 phase after 24 hrs using propidium iodide staining at 7 uM by flow cytometry (reference value: 39.05%); format: functional
K562 [15] = assay: Cell cycle arrest in human K562 cells assessed as accumulation at S phase after 24 hrs using propidium iodide staining at 7 uM by flow cytometry (reference value: 45.94%); format: functional
K562 [16] = assay: Cell cycle arrest in human K562 cells assessed as accumulation at G2-M phase after 24 hrs using propidium iodide staining at 7 uM by flow cytometry (reference value: 15.01%); format: functional
K562 [17] = assay: Induction of pSTAT5 expression level in human K562 cells at 15 uM after 24 hrs by FACScan flow cytometry; format: functional, cell-based
K562 [18] = assay: Induction of pSTAT5 expression level in human K562 cells at 10 uM after 24 hrs by FACScan flow cytometry; format: functional, cell-based
K562 [19] = assay: Cell cycle arrest in human K562 cells assessed as accumulation at S phase after 24 hrs using propidium iodide staining at 40 uM by flow cytometry (reference value: 45.94%); format: functional
K562 [20] = assay: Effect on pSTAT5 expression level in human K562 cells at 30 uM after 24 hrs by FACScan flow cytometry; format: functional, cell-based
K562 [21] = assay: Cell cycle arrest in human K562 cells assessed as accumulation at G1 phase after 24 hrs using propidium iodide staining at 40 uM by flow cytometry (reference value: 39.05%); format: functional
K562 [22] = assay: Cell cycle arrest in human K562 cells assessed as accumulation at G2-M phase after 24 hrs using propidium iodide staining at 40 uM by flow cytometry (reference value: 15.01%); format: functional
K562 [23] = assay: Cell cycle arrest in human K562 cells assessed as accumulation at G2-M phase after 24 hrs using propidium iodide staining at 5 uM by flow cytometry (reference value: 15.01%); format: functional
K562 [24] = assay: Cell cycle arrest in human K562 cells assessed as accumulation at S phase after 24 hrs using propidium iodide staining at 5 uM by flow cytometry (reference value: 45.94%); format: functional
K562 [25] = assay: Ratio of Pimozide to compound for pSTAT5 expression level in human K562 cells; format: functional
K562 [26] = assay: Ratio of Pimozide IC50 to compound IC50 for human K562 cells by trypan blue dye exclusion test; format: functional
K562 [27] = assay: Cell cycle arrest in human K562 cells assessed as accumulation at G1 phase after 24 hrs using propidium iodide staining at 5 uM by flow cytometry (reference value: 39.05%); format: functional
K562 [28] = assay: Ratio of Pimozide AC50 to compound AC50 for human K562 cells by annexin V/propidium iodide staining-based flow cytometric analysis; format: functional
K562 [29] = assay: Effect on pSTAT5 expression level in human K562 cells at 10 uM after 24 hrs by FACScan flow cytometry; format: functional, cell-based

Which IC50 (K562 [1]) does the source give for `CC(=O)N1CCC(n2c(=O)[nH]c3ccccc32)CC1` here?
Its IC50 is over 50 µM.

What about the AC50 (K562 [2]) of the same molecule?
Its AC50 is over 50 µM.

With `O=C(CC=C(c1ccccc1)c1ccccc1)N1CCC(n2c(=O)[nH]c3ccccc32)CC1` as the molecule, how does the Activity (K562 [3]) read?
The Activity was 7.33%.

And the IC50 (K562 [1])?
Its IC50 is 13 µM.

What about the Activity (K562 [4]) of the same molecule?
The Activity was “inactive”.

And the Activity (K562 [5])?
Its Activity is 58.57%.

What about the AC50 (K562 [2]) of the same molecule?
The AC50 was 18 µM.

What about the Activity (K562 [6]) of the same molecule?
The Activity was 34.1%.

`O=C(CC=C(c1ccc(F)cc1)c1ccc(F)cc1)N1CCC(n2c(=O)[nH]c3ccccc32)CC1` was tested. Which Activity (K562 [7]) did it give?
The Activity was 47.2%.

And the Activity (K562 [8])?
Its Activity is 46.64%.

What about the Activity (K562 [9]) of the same molecule?
Its Activity is 6.16%.

What about the IC50 (K562 [1]) of the same molecule?
The IC50 was 18 µM.

What about the Activity (K562 [4]) of the same molecule?
Its Activity is “inactive”.

And the AC50 (K562 [2])?
Its AC50 is 35 µM.

With `CN1CCC(n2c(=O)[nH]c3ccccc32)CC1` as the molecule, how does the IC50 (K562 [1]) read?
The IC50 was over 50 µM.

What about the AC50 (K562 [2]) of the same molecule?
The AC50 was over 50 µM.

With `O=c1[nH]c2ccccc2n1C1CCN(CCCC(c2ccc(F)cc2)c2ccc(F)cc2)CC1` [PIMOZIDE] as the molecule, how does the Activity (K562 [10]) read?
The Activity was “Dose-dependent effect”.

What about the Activity (K562 [11]) of the same molecule?
The Activity was 10.31%.

What about the IC50 (K562 [1]) of the same molecule?
Its IC50 is 5 µM.

What about the Activity (K562 [12]) of the same molecule?
Its Activity is 51.28%.

What about the AC50 (K562 [2]) of the same molecule?
The AC50 was 10 µM.

What about the Activity (K562 [13]) of the same molecule?
Its Activity is 38.41%.

How did the Activity (K562 [7]) turn out when `O=C(CCC(c1ccccc1)c1ccccc1)N1CCC(n2c(=O)[nH]c3ccccc32)CC1` was run?
Its Activity is 48.02%.

What about the Activity (K562 [8]) of the same molecule?
The Activity was 31.57%.

And the Activity (K562 [9])?
Its Activity is 20.41%.

What about the IC50 (K562 [1]) of the same molecule?
Its IC50 is 14 µM.

What about the Activity (K562 [4]) of the same molecule?
The Activity was “inactive”.

And the AC50 (K562 [2])?
The AC50 was 19 µM.

Which IC50 (K562 [1]) does the source give for `O=C(Cc1ccccc1)N1CCC(n2c(=O)[nH]c3ccccc32)CC1` here?
Its IC50 is over 50 µM.

What about the AC50 (K562 [2]) of the same molecule?
Its AC50 is over 50 µM.

`O=C(CBr)N1CCC(n2c(=O)[nH]c3ccccc32)CC1` was tested. Which Activity (K562 [14]) did it give?
Its Activity is 47.55%.

And the Activity (K562 [15])?
The Activity was 43.23%.

And the Activity (K562 [16])?
Its Activity is 9.22%.

What about the Activity (K562 [17]) of the same molecule?
The Activity was “Active”.

And the IC50 (K562 [1])?
The IC50 was 2.4 µM.

What about the AC50 (K562 [2]) of the same molecule?
Its AC50 is 4.8 µM.

What about the Activity (K562 [18]) of the same molecule?
Its Activity is “Active”.

How did the IC50 (K562 [1]) turn out when `O=c1[nH]c2ccccc2n1C1CCNCC1` was run?
The IC50 was over 50 µM.

And the AC50 (K562 [2])?
The AC50 was over 50 µM.

With `O=C(Cc1ccc([N+](=O)[O-])cc1)N1CCC(n2c(=O)[nH]c3ccccc32)CC1` as the molecule, how does the Activity (K562 [19]) read?
Its Activity is 62.21%.

What about the Activity (K562 [20]) of the same molecule?
The Activity was “inactive”.

And the Activity (K562 [21])?
The Activity was 31.72%.

What about the Activity (K562 [22]) of the same molecule?
Its Activity is 6.07%.

And the IC50 (K562 [1])?
Its IC50 is 35 µM.

And the AC50 (K562 [2])?
Its AC50 is over 50 µM.

How did the Activity (K562 [23]) turn out when `O=C(CI)N1CCC(n2c(=O)[nH]c3ccccc32)CC1` was run?
The Activity was 13.98%.

What about the Activity (K562 [24]) of the same molecule?
Its Activity is 39.06%.

What about the “Ratio IC50” value (K562 [25]) of the same molecule?
The value was 1.49.

And the “Ratio IC50” value (K562 [26])?
The value was 2.7.

What about the Activity (K562 [27]) of the same molecule?
Its Activity is 46.96%.

And the “Ratio IC50” value (K562 [28])?
The value was 2.

What about the Activity (K562 [17]) of the same molecule?
The Activity was “Active”.

And the IC50 (K562 [1])?
Its IC50 is 1.8 µM.

And the AC50 (K562 [2])?
Its AC50 is 5 µM.

What about the Activity (K562 [18]) of the same molecule?
The Activity was “Active”.

With `COc1ccc(CC(=O)N2CCC(n3c(=O)[nH]c4ccccc43)CC2)cc1` as the molecule, how does the IC50 (K562 [1]) read?
Its IC50 is over 50 µM.

What about the AC50 (K562 [2]) of the same molecule?
The AC50 was over 50 µM.

Which Activity (K562 [11]) does the source give for `O=C(CCl)N1CCC(n2c(=O)[nH]c3ccccc32)CC1` here?
Its Activity is 6.1%.

And the IC50 (K562 [1])?
Its IC50 is 7.3 µM.

What about the Activity (K562 [12]) of the same molecule?
Its Activity is 33.67%.

And the AC50 (K562 [2])?
The AC50 was 14 µM.

What about the Activity (K562 [13]) of the same molecule?
Its Activity is 60.23%.

What about the Activity (K562 [29]) of the same molecule?
The Activity was “inactive”.

How did the IC50 (K562 [1]) turn out when `C=CC(=O)N1CCC(n2c(=O)[nH]c3ccccc32)CC1` was run?
Its IC50 is over 50 µM.

What about the AC50 (K562 [2]) of the same molecule?
Its AC50 is over 50 µM.

Which results are given for `N#CCC(=O)N1CCC(n2c(=O)[nH]c3ccccc32)CC1`?
IC50 (K562 [1]): > 50 µM; AC50 (K562 [2]): > 50 µM

Which results are given for `O=C(CCC(c1ccc(F)cc1)c1ccc(F)cc1)N1CCC(n2c(=O)[nH]c3ccccc32)CC1`?
IC50 (K562 [1]): > 50 µM; AC50 (K562 [2]): > 50 µM

How did the IC50 (K562 [1]) turn out when `O=C(Cc1cc2ccccc2[nH]1)N1CCC(n2c(=O)[nH]c3ccccc32)CC1` was run?
Its IC50 is over 50 µM.

What about the AC50 (K562 [2]) of the same molecule?
The AC50 was over 50 µM.
